Key:
[1] = system: GBM cells; assay: Annexin V flow cytometry apoptosis assay; type: cell-based, human; conditions: 25 uM stated adequate for subsequent experiments, n=3
Description: Cell apoptosis was detected by flow cytometry according to the manufacturer's instructions of the Annexin V‐FITC Apoptosis Detection Kit (KeyGen Biotech, China). Briefly, cells were incubated with Doxorubicin (DOX, 2 µM) for 48 h. Cells were harvested and rinsed with ice‐cold PBS and then resuspended in 200 µL of binding buffer. 10 mL of AV‐FITC stock solution was added to cell suspensions and incubated for 15 min at RT. Cells were further rinsed with 200 µL ice‐cold PBS and immediately analyzed by a FACScan flow cytometry.
Supplementary Fig. 9 C16 inhibits tumor growth and promotes chemosensitivity in vitro.
B. Colony formation of cells treated with SC or C16 (left) and the accompanying statistical
analysis (right; n=6, Student’s t-test, **P < 0.01).
C. Annexin V staining flow cytometry assay of cells simultaneously treated with Dox with SC or
C16 for 48 h (n=3, Student’s t-test, *P < 0.05, **P < 0.01).
(1 picture or pasted object on this page, not shown here)

[2] = system: U87 xenograft tumor cell proliferation; assay: EdU incorporation in intracranial U87 xenografts; type: in vivo, mouse; conditions: 10 µg i.p. once every 2 days; EdU 24 h prior to sacrifice; vs SC; n = 6, p < 0.01
Text: Considering that the SH2 domain predominantly represents the inhibition of SHF on STAT3 dimerization and activity, we speculated that this domain may be an optional target for GBM suppression. To this end, we analyzed the mechanical interaction of SHF and STAT3. The structures of human SHF (aa265‐421) and STAT3 (aa130‐715). both of which spanned their respective SH2 domain. were simulated by Swiss‐Model server (https://swissmodel.expasy.org/). To simulate the interaction of SHF and STAT3, Discovery studio 2018 was employed to complete protein‐protein docking using ZDOCK as an initial stage. A rigid body molecular docking algorithm utilizing a fast Fourier transform (FFT) algorithm was used to further improve performance for searching in translational space. […] Next, we determined the implication of C16 in tumor inhibition. […] A concentration of 25 uM was determined to be adequate for use in the subsequent experiments. […]
Figure 7 Peptide derived from the STAT3‐binding sites of SHF is an effective GBM suppressive strategy. […] B) IF staining determined the cell penetrability and nuclear‐localization of C16. […] The relative quantification of STAT3 dimerization was listed. […] The relative quantification of STAT3/DNMT1 interaction was listed. […] The relative quantification of STAT3/DNMT1 interaction was listed. […]

C16: peptide spanning SHF amino acids 388–421, palmitic acid at the N-terminus, amidated C-terminus, 3× His tags added to the C-terminal (PFSSVPEIVHHYASRKLPIKGAEHMSLLYPVAIR; palmitic acid at the N-terminus; amidated C-terminus; left off: 3× His tags, C-terminal, kept)
spontaneous apoptosis ([1]; C16 vs SC): without increasing spontaneous apoptosis
chemosensitivity (apoptosis with Dox) ([1]; simultaneous Dox with SC or C16 for 48 h): promoted chemosensitivity
EdU positive cells in xenografts [2]: significantly decreased
